Results taken from ChEMBL document CHEMBL5154804, “Species-Selective Targeting of Fungal Hsp90: Design, Synthesis, and Evaluation of Novel 4,5-Diarylisoxazole Derivatives for the Combination Treatment of Azole-Resistant Candidiasis” (J Med Chem, 2022).

Columns and labels:
CYP2C9 = CYP2C9 (Homo sapiens, UniProt P11712); experiment: Inhibition of CYP2C9 in human liver microsome at 10 uM using diclofenac as substrate incubated for 10 mins in presence of NADPH cofactor by LC-MS/MS analysis; assay type: ADME; conditions: liver microsomes, probe diclofenac
Sequence of CYP2C9 (P11712 whole entry): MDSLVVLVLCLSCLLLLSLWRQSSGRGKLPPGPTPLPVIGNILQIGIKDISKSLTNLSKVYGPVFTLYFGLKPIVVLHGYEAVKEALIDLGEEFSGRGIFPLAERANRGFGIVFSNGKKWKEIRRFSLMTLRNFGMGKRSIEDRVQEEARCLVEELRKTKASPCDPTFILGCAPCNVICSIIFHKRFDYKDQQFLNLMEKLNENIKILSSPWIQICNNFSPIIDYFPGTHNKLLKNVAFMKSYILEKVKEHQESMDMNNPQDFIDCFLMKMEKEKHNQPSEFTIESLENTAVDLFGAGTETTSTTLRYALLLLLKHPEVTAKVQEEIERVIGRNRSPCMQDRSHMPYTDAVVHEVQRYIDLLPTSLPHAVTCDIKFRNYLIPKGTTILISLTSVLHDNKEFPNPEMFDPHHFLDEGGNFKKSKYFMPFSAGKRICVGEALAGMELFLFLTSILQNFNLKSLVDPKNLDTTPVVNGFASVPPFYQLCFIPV

Candida albicans [1] = experiment: Antifungal activity against fluconazole-resistant Candida albicans 632 assessed as inhibition of fungal growth by checker board microdilution assay; assay type: functional
Candida albicans [2] = experiment: Potentiation of fluconazole-induced antifungal activity against fluconazole-resistant Candida albicans 901 assessed as fluconazole MIC by checker board microdilution assay; assay type: functional
A549 = experiment: Cytotoxicity against human A549 cell assessed as inhibition of cell growth after 24 hrs by MTT assay; assay type: functional, cell-based; conditions: A549, 24 h
[3] = Stability in human plasma assessed as compound remaining at 120 mins by LC-MS/MS analysis; assay type: ADME, cell-free; conditions: read-out: Stability
MCF7 = experiment: Cytotoxicity against human MCF7 cell assessed as inhibition of cell growth after 24 hrs by MTT assay; assay type: functional, cell-based; conditions: MCF7, 24 h
[4] = Metabolic stability in human liver microsomes assessed as compound remaining in presence of NADPH cofactor under shaking condition for 10 mins measured after 60 mins by LC-MS/MS analysis; assay type: ADME, Microsome; conditions: time 70 min, read-out: Stability
CYP3A4 = CYP3A4 (Homo sapiens, UniProt P08684); experiment: Inhibition of CYP3A4 in human liver microsome at 10 uM using midazolam as substrate incubated for 10 mins in presence of NADPH cofactor by LC-MS/MS analysis; assay type: ADME; conditions: liver microsomes, probe midazolam
Sequence of CYP3A4 (P08684 whole entry): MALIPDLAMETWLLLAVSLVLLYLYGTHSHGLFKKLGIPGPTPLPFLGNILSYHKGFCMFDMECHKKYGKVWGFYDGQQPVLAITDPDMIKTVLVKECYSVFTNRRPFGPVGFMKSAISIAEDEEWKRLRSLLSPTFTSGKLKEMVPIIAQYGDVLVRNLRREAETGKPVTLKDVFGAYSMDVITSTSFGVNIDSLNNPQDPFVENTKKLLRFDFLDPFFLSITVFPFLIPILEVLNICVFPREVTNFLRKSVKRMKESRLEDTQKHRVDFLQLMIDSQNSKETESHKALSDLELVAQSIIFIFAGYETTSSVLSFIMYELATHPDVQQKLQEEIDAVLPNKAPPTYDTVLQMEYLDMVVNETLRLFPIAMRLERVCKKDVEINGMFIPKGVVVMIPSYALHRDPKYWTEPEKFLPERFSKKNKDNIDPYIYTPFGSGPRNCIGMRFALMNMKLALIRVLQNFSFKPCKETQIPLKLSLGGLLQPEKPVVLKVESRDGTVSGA

Candida albicans [5] = experiment: Antifungal activity against fluconazole-resistant Candida albicans 901 assessed as inhibition of fungal growth by checker board microdilution assay; assay type: functional
Candida albicans [6] = experiment: Antifungal activity against fluconazole-resistant Candida albicans 103 assessed as inhibition of fungal growth by checker board microdilution assay; assay type: functional
[7] = Cytotoxicity against human THLE-2 cell assessed as inhibition of cell growth after 24 hrs by MTT assay; assay type: toxicity, cell-based; conditions: THLE-2 cells
Candida albicans [8] = experiment: Synergistic antifungal activity against fluconazole-resistant Candida albicans 311 assessed as inhibition of fungal growth in presence of fluconazole by checker board microdilution assay; assay type: functional
[9] = Cytotoxicity against mouse NIH3T3 cell assessed as inhibition of cell growth after 24 hrs by MTT assay; assay type: toxicity, cell-based; conditions: NIH3T3 cells
Candida albicans [10] = experiment: Synergistic antifungal activity against fluconazole-resistant Candida albicans 100 assessed as inhibition of fungal growth in presence of fluconazole by checker board microdilution assay; assay type: functional
Candida albicans [11] = experiment: Synergetic antifungal activity against fluconazole-resistant Candida albicans 100 assessed as fractional inhibitory concentration index in presence of fluconazole by checker board microdilution assay; assay type: functional
Candida albicans [12] = experiment: Synergetic antifungal activity against fluconazole-resistant Candida albicans 632 assessed as fractional inhibitory concentration index in presence of fluconazole by checker board microdilution assay; assay type: functional
CYP2D6 = CYP2D6 (Homo sapiens, UniProt P10635); experiment: Inhibition of CYPD6 in human liver microsome at 10 uM using dextromethorphan as substrate incubated for 10 mins in presence of NADPH cofactor by LC-MS/MS analysis; assay type: ADME; conditions: liver microsomes, probe dextromethorphan
Sequence of CYP2D6 (P10635 whole entry): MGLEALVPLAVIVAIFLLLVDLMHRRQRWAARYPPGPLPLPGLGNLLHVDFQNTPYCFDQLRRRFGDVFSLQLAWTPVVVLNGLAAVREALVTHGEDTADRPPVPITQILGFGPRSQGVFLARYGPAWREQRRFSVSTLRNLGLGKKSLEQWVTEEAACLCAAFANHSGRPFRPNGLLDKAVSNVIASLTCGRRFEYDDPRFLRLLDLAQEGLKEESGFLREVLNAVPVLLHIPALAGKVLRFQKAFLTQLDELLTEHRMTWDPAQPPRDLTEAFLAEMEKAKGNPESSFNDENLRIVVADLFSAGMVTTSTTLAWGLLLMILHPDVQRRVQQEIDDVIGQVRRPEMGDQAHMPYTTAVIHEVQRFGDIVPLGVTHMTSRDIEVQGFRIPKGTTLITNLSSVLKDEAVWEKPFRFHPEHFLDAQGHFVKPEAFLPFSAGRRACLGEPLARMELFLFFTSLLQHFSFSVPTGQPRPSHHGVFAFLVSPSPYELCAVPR

Candida albicans [13] = experiment: Synergistic antifungal activity against fluconazole-resistant Candida albicans 103 assessed as inhibition of fungal growth in presence of fluconazole by checker board microdilution assay; assay type: functional
Candida albicans [14] = experiment: Synergistic antifungal activity against fluconazole-resistant Candida albicans 904 assessed as inhibition of fungal growth in presence of fluconazole by checker board microdilution assay; assay type: functional
Candida albicans [15] = experiment: Synergetic antifungal activity against fluconazole-resistant Candida albicans 103 assessed as fractional inhibitory concentration index in presence of fluconazole by checker board microdilution assay; assay type: functional
Candida albicans [16] = experiment: Potentiation of fluconazole-induced antifungal activity against fluconazole-resistant Candida albicans 904 assessed as fluconazole MIC by checker board microdilution assay; assay type: functional
Candida albicans [17] = experiment: Potentiation of fluconazole-induced antifungal activity against fluconazole-resistant Candida albicans 103 assessed as fluconazole MIC by checker board microdilution assay; assay type: functional
HepG2 = experiment: Cytotoxicity against human HepG2 cell assessed as inhibition of cell growth after 24 hrs by MTT assay; assay type: functional, cell-based; conditions: HepG2, 24 h
CYP2C19 = CYP2C19 (Homo sapiens, UniProt P33261); experiment: Inhibition of CYP2C19 in human liver microsome at 10 uM using S-mephenytoin as substrate incubated for 10 mins in presence of NADPH cofactor by LC-MS/MS analysis; assay type: ADME; conditions: liver microsomes, probe S-mephenytoin
Sequence of CYP2C19 (P33261 whole entry): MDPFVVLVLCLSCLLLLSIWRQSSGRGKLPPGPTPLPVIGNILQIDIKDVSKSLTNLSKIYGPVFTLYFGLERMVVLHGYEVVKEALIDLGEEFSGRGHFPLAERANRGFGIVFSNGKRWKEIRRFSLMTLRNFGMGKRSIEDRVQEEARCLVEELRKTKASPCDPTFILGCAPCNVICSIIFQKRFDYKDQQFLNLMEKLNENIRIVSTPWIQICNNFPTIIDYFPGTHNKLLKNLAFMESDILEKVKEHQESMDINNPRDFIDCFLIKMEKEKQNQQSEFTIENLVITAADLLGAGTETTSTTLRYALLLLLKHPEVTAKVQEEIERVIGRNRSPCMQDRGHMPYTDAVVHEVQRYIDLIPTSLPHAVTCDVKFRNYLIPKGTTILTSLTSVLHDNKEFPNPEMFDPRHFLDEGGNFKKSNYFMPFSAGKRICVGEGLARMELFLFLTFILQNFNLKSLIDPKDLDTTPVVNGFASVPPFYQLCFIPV

[18] = Cytotoxicity against mouse BV-2 cell assessed as inhibition of cell growth after 24 hrs by MTT assay; assay type: toxicity, cell-based; conditions: BV-2 cells
Candida albicans [19] = experiment: Synergistic antifungal activity against fluconazole-resistant Candida albicans 901 assessed as inhibition of fungal growth in presence of fluconazole by checker board microdilution assay; assay type: functional
[20] = Cytotoxicity against human BEAS-2B cell assessed as inhibition of cell growth after 24 hrs by MTT assay; assay type: toxicity, cell-based; conditions: BEAS-2B cells
Candida albicans [21] = experiment: Antifungal activity against fluconazole-resistant Candida albicans 311 assessed as inhibition of fungal growth by checker board microdilution assay; assay type: functional
Candida albicans [22] = experiment: Antifungal activity against fluconazole-resistant Candida albicans 100 assessed as inhibition of fungal growth by checker board microdilution assay; assay type: functional
[23] = Metabolic stability in human liver microsomes assessed as half life in presence of NADPH cofactor under shaking condition for 10 mins measured after 5 to 60 mins by LC-MS/MS analysis; assay type: ADME, Microsome; conditions: time 15-70 min
Candida albicans [24] = experiment: Synergetic antifungal activity against fluconazole-resistant Candida albicans 904 assessed as fractional inhibitory concentration index in presence of fluconazole by checker board microdilution assay; assay type: functional
Candida albicans [25] = experiment: Synergetic antifungal activity against fluconazole-resistant Candida albicans 311 assessed as fractional inhibitory concentration index in presence of fluconazole by checker board microdilution assay; assay type: functional
CYP1A2 = target: T1, CYP1A2 (Homo sapiens, UniProt P05177); experiment: Inhibition of CYP1A2 in human liver microsome at 10 uM using phenacetin as substrate incubated for 10 mins in presence of NADPH cofactor by LC-MS/MS analysis; assay type: ADME; conditions: liver microsomes, probe phenacetin
T1 sequence (P05177 whole entry): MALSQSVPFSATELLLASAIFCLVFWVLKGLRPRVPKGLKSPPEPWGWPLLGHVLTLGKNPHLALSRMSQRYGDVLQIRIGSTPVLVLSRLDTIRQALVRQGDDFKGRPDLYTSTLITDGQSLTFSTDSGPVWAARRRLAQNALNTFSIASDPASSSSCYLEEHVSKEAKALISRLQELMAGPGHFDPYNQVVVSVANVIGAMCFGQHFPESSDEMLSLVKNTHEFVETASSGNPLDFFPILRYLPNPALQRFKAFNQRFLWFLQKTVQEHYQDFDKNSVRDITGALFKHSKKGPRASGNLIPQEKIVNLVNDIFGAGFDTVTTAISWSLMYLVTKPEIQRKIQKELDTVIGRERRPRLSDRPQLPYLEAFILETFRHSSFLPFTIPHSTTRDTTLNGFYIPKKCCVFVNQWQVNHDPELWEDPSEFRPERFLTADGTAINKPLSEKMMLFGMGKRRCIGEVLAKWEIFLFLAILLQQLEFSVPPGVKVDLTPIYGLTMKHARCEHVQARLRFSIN

Candida albicans [26] = experiment: Potentiation of fluconazole-induced antifungal activity against fluconazole-resistant Candida albicans 632 assessed as fluconazole MIC by checker board microdilution assay; assay type: functional
[27] = Stability in human plasma assessed as half life at 120 mins by LC-MS/MS analysis; assay type: ADME, cell-free
Candida albicans [28] = experiment: Synergetic antifungal activity against fluconazole-resistant Candida albicans 901 assessed as fractional inhibitory concentration index in presence of fluconazole by checker board microdilution assay; assay type: functional
[29] = Metabolic stability in human liver microsomes assessed as intrinsic clearance in presence of NADPH cofactor under shaking condition for 10 mins measured after 5 to 60 mins by LC-MS/MS analysis; assay type: ADME, Microsome; conditions: time 15-70 min
[30] = Metabolic stability in human liver microsomes assessed as microsomal intrinsic clearance in presence of NADPH cofactor under shaking condition for 10 mins measured after 5 to 60 mins by LC-MS/MS analysis; assay type: ADME, Microsome; conditions: time 15-70 min
Candida albicans [31] = experiment: Synergistic antifungal activity against fluconazole-resistant Candida albicans 632 assessed as inhibition of fungal growth in presence of fluconazole by checker board microdilution assay; assay type: functional
RAW264.7 = experiment: Cytotoxicity against mouse RAW264.7 cell assessed as inhibition of cell growth after 24 hrs by MTT assay; assay type: functional, cell-based; conditions: RAW264.7, 24 h
Candida albicans [32] = experiment: Potentiation of fluconazole-induced antifungal activity against fluconazole-resistant Candida albicans 311 assessed as fluconazole MIC by checker board microdilution assay; assay type: functional
Candida albicans [33] = experiment: Antifungal activity against fluconazole-resistant Candida albicans 904 assessed as inhibition of fungal growth by checker board microdilution assay; assay type: functional
Candida albicans [34] = experiment: Potentiation of fluconazole-induced antifungal activity against fluconazole-resistant Candida albicans 100 assessed as fluconazole MIC by checker board microdilution assay; assay type: functional
Heat shock protein HSP90 = Heat shock protein HSP90 (Homo sapiens, UniProt P07900+P08238); experiment: Binding affinity to human Hsp90 expressed in Escherichia coli by SPR assay
[35] = Binding affinity to recombinant Candida albicans Hsp90 NBD expressed in Escherichia coli by SPR assay

## CNC(=O)c1noc(-c2cc(-c3ccc(C)cc3)c(O)cc2O)c1-c1ccc(CN2CCCCC2)cc1
CYP2C9
  inhibition at 10 min, 10 µM: 44.6%
Candida albicans [1]
  MIC80: > 64 µg/mL
Candida albicans [2]
  MIC80: 1 µg/mL
A549
  IC50: 10.8 µM
[3]
  remaining at 2 h: 55.2%
MCF7
  IC50: 15.6 µM
[4]
  remaining at 1.167 h: 38.3%
CYP3A4
  inhibition at 10 min, 10 µM: 17.7%
Candida albicans [5]
  MIC80: > 64 µg/mL
Candida albicans [6]
  MIC80: > 64 µg/mL
[7]
  IC50 at 24 h: 2.79 µM
Candida albicans [8]
  MIC80: 0.5 µg/mL
[9]
  IC50 at 24 h: 0.46 µM
Candida albicans [10]
  MIC80: 1 µg/mL
Candida albicans [11]
  fractional inhibitory concentration index (FICI): 0.047
Candida albicans [12]
  fractional inhibitory concentration index (FICI): 0.062
CYP2D6
  inhibition at 10 min, 10 µM: 24.8%
Candida albicans [13]
  MIC80: 0.5 µg/mL
Candida albicans [14]
  MIC80: 0.125 µg/mL
Candida albicans [15]
  fractional inhibitory concentration index (FICI): 0.039
Candida albicans [16]
  MIC80: 0.5 µg/mL
Candida albicans [17]
  MIC80: 2 µg/mL
HepG2
  IC50: 24.9 µM
CYP2C19
  inhibition at 10 min, 10 µM: 48.5%
[18]
  IC50 at 24 h: 3.04 µM
Candida albicans [19]
  MIC80: 0.25 µg/mL
[20]
  IC50 at 24 h: 11.6 µM
Candida albicans [21]
  MIC80: > 64 µg/mL
Candida albicans [22]
  MIC80: > 64 µg/mL
[23]
  half-life: 43.3 min
Candida albicans [24]
  fractional inhibitory concentration index (FICI): 0.01
Candida albicans [25]
  fractional inhibitory concentration index (FICI): 0.023
CYP1A2
  inhibition at 10 min, 10 µM: 17.7%
Candida albicans [26]
  MIC80: 2 µg/mL
[27]
  half-life: 131 min
Candida albicans [28]
  fractional inhibitory concentration index (FICI): 0.02
[29]
  CLint: 28.8 mL/min/kg
[30]
  CLint: 32 µL/min/mg
Candida albicans [31]
  MIC80: 2 µg/mL
RAW264.7
  IC50: 3.65 µM
Candida albicans [32]
  MIC80: 1 µg/mL
Candida albicans [33]
  MIC80: > 64 µg/mL
Candida albicans [34]
  MIC80: 2 µg/mL

## CCNC(=O)c1noc(-c2cc(-c3cccc(CC)c3)c(O)cc2O)c1-c1ccc(CN2CCOCC2)cc1
[4]
  remaining at 1.167 h: 9.2%
Candida albicans [8]
  MIC80: 0.5 µg/mL
Candida albicans [10]
  MIC80: 0.25 µg/mL
Candida albicans [13]
  MIC80: 1 µg/mL
Candida albicans [14]
  MIC80: 0.5 µg/mL
Candida albicans [19]
  MIC80: 0.25 µg/mL
[23]
  half-life: 17.2 min
[29]
  CLint: 72.7 mL/min/kg
[30]
  CLint: 80.7 µL/min/mg
Candida albicans [31]
  MIC80: 0.5 µg/mL

## CCNC(=O)c1noc(-c2cc(-c3ccccc3)c(O)cc2O)c1-c1ccc(CN2CCOCC2)cc1
Candida albicans [8]
  MIC80: 4 µg/mL
Candida albicans [10]
  MIC80: 2 µg/mL
Candida albicans [13]
  MIC80: 4 µg/mL
Candida albicans [14]
  MIC80: 2 µg/mL
Heat shock protein HSP90
  Kd: > 25 µM
Candida albicans [19]
  MIC80: 1 µg/mL
Candida albicans [31]
  MIC80: 4 µg/mL
[35]
  Kd: 7.91 µM
